Counter-ions that a name gives are not always drawn.
Key:
Type in all cases: physicochemical
[1] = Crystal form stability at room temperature (transformation to H2-1); conditions: H0.75-3: after one night
Source text: WO20100115974 discloses three forms of saxagliptin hydrochloride (I-S, HT-S, IV-S) but with a water content of not more than 1.5% by weight. […] On the other hand, the saxagliptin hydrochloride dihydrate H2-1 is stable. Unfortunately, it is difficult to prepare it in pure form by an industrial process which could be reproducible at industrial scale.

[2] = Solubility and stability in water at room temperature; conditions: for Solubility in water: volumes of water in which the form is soluble / Solubility in water compared with saxagliptin HCl dihydrate H2-1: room temperature
[3] = Crystalline stability at 60° C.-37% RH (XRPD); conditions: stored at 60° C. with 37% RH
Protocol: Crystalline and chemical stability at 60° C.-37% RH: saxagliptin crystalline form I and the known saxagliptin crystalline forms H-1, H2-1 were stored at 60° C. with 37% relative humidity (RH). The samples were analyzed by XRPD and HPLC-MS to check crystalline transformation and chemical degradation. […] However, chemical degradations were observed (see Table 6 below).
(§1) Crystalline and chemical stability at 60° C.—37% RH: Saxagliptin crystalline forms H-1, H2-1 and A were stored at 60° C. with 37% RH. The samples were analyzed by XRPD and HPLC-MS to check crystalline transformation and chemical degradation.

[4] = Chemical stability at 60° C.-37% RH (amidine impurities by HPLC-MS); conditions: for Color of the solid form after storage: after 1 week
Protocol: Crystalline and chemical stability at 60° C.-37% RH: saxagliptin crystalline form I and the known saxagliptin crystalline forms H-1, H2-1 were stored at 60° C. with 37% relative humidity (RH). The samples were analyzed by XRPD and HPLC-MS to check crystalline transformation and chemical degradation.
as §1

## N#C[C@@H]1C[C@@H]2C[C@@H]2N1C(=O)[C@@H](N)C12CC3CC(CC(O)(C3)C1)C2 [HT-S, saxagliptin hydrochloride]
[1]; hydrochloride
  Crystal form stability (transformation to saxagliptin hydrochloride dihydrate H2-1): not very stable

## N#C[C@@H]1C[C@@H]2C[C@@H]2N1C(=O)[C@@H](N)C12CC3CC(CC(O)(C3)C1)C2 [Form H2-1, saxagliptin hydrochloride dihydrate, reference compound]
[1]; hydrochloride dihydrate
  Crystal form stability (transformation to saxagliptin hydrochloride dihydrate H2-1): stable
[2]
  Solubility in water: volumes of water in which the form is soluble: 5 volumes of water

## N#C[C@@H]1C[C@@H]2C[C@@H]2N1C(=O)[C@@H](N)C12CC3CC(CC(O)(C3)C1)C2 [IV-S, saxagliptin hydrochloride]
[1]; hydrochloride
  Crystal form stability (transformation to saxagliptin hydrochloride dihydrate H2-1): not very stable

## N#C[C@@H]1C[C@@H]2C[C@@H]2N1C(=O)[C@@H](N)C12CC3CC(CC(O)(C3)C1)C2 [Form H0.75-3, saxagliptin hydrochloride]
[1]; hydrochloride
  Crystal form stability (transformation to saxagliptin hydrochloride dihydrate H2-1): transforms to saxagliptin hydrochloride dihydrate H2-1

## saxagliptin HCl.saxagliptin cocrystal (1:1) hydrate [Form I]
[3]
  Crystalline transformation (XRPD): No crystalline transformations were observed
[4]
  Degradation rate / stability compared with free base H-1 and hydrochloride H2-1: much lower
  Color of the solid form after storage: remained white
[4]; 16 h (Table 6)
  Δ variation amidine Impurity % (HPLC-MS), impurity (A): 0.08% (A)
[4]; 168 h (Table 6)
  Δ variation amidine Impurity % (HPLC-MS), impurity (A): 0.38% (A)
[4]; 184 h (Table 6)
  Δ variation amidine Impurity % (HPLC-MS), impurity (A): 0.40% (A)
[2]
  Solubility in water (in words, description): soluble in water
[2]; 20 vol. in water at room temperature (20-25° C.)
  Solubility in water: soluble
[2]; 20 vol. in water at room temperature, after 24 h
  Stability in water (reprecipitation): reprecipitation was not observed

## Cl.N#C[C@@H]1C[C@@H]2C[C@@H]2N1C(=O)[C@@H](N)C12CC3CC(CC(O)(C3)C1)C2.NC(N)=O.NC(N)=O.NC(N)=O [Form IV, saxagliptin HCl.urea cocrystal (1:3)]
[2]
  Solubility in water (in words, description): very soluble in water
  Solubility in water compared with saxagliptin HCl dihydrate H2-1: more soluble
  Solubility in water: volumes of water in which the form is soluble: approximately 2.5 volumes of water

## Cl.N#C[C@@H]1C[C@@H]2C[C@@H]2N1C(=O)[C@@H](N)C12CC3CC(CC(O)(C3)C1)C2.O.O=C(O)CO [Form II, saxagliptin HCl glycolic acid cocrystal (1:1) monohydrate]
[2]
  Solubility in water (in words, description): quite soluble in water
  Solubility in water compared with saxagliptin HCl dihydrate H2-1: same solubility
  Solubility in water: volumes of water in which the form is soluble: 5 volumes of water

## N#C[C@@H]1C[C@@H]2C[C@@H]2N1C(=O)[C@@H](N)C12CC3CC(CC(O)(C3)C1)C2 [Form P-5, saxagliptin hydrochloride]
[1]; hydrochloride
  Crystal form stability (transformation to saxagliptin hydrochloride dihydrate H2-1): not very stable

## saxagliptin HCl.malonic acid cocrystal (3:2) hydrate [Form III]
[2]
  Solubility in water (in words, description): soluble in water
  Solubility in water compared with saxagliptin HCl dihydrate H2-1: solubility similar
  Solubility in water: volumes of water in which the form is soluble: approximately 4 volumes of water

## N#C[C@@H]1C[C@@H]2C[C@@H]2N1C(=O)[C@@H](N)C12CC3CC(CC(O)(C3)C1)C2 [I-S, saxagliptin hydrochloride]
[1]; hydrochloride
  Crystal form stability (transformation to saxagliptin hydrochloride dihydrate H2-1): not very stable

## N#C[C@@H]1C[C@@H]2C[C@@H]2N1C(=O)[C@@H](N)C12CC3CC(CC(O)(C3)C1)C2 [Form H-1, (1S,3S,5S)-2-[(2S)-2-amino-2-(3-hydroxy-1-adamantyl)acetyl]-2-azabicyclo[3.1.0]hexane-3-carbonitrile]
[3]
  Crystalline transformation (XRPD): No crystalline transformations were observed
[4]; 16 h (Table 6)
  Δ variation amidine Impurity % (HPLC-MS), impurity (A): 0.64% (A)
[4]; 16 h (Table 7)
  Δ variation amidine Impurities A and B % (HPLC-MS), impurity (A): 0.6% (A)
[4]; 168 h (Table 6)
  Δ variation amidine Impurity % (HPLC-MS), impurity (A): 2.68%
  Δ variation amidine Impurity % (HPLC-MS), impurity (B): 2.21%
[4]; 168 h (Table 7)
  Δ variation amidine Impurities A and B % (HPLC-MS), impurity (A): 2.7%
  Δ variation amidine Impurities A and B % (HPLC-MS), impurity (B): 2.2%
[4]; 184 h (Table 6)
  Δ variation amidine Impurity % (HPLC-MS), impurity (A): 2.86% (A) +
  Δ variation amidine Impurity % (HPLC-MS), impurity (B): 2.33% (B)
[4]
  Color of the solid form after storage: became yellowish

— patent publication US20150087686A1, “CRYSTALLINE FORMS OF SAXAGLIPTIN” (priority 2012, published 2015)
